Test results from PMC11623267, “Inhibitors of malaria parasite cyclic nucleotide phosphodiesterases block asexual blood-stage development and mosquito transmission” (Science Advances, 2024).

Key:
P. falciparum 3D7 [1] = experiment: Ex vivo schizont maturation assay, 3D7 control (Brazil); type: cell-based, Plasmodium falciparum; settings: tested in parallel with Brazilian isolates, 20% human serum
Experimental: Only monoinfected patients with P. falciparum with parasitemia between 2000 and 80,000 parasites/μl and with at least 70% of ring-stage parasites were recruited. Patients who had used an antimalarial in the previous month and/or presented with symptoms of severe malaria were excluded from the study. The study cohort comprised 24 patients living in this highly endemic area. A peripheral venous blood sample (5 ml) was collected from each individual by venipuncture in heparin-containing tubes and immediately used in the ex vivo drug susceptibility assay using preprepared plates containing diluted antimalarial compounds. […] Last, 20 μl of each dilution was transferred into the ex vivo assay plate and diluted 10-fold into the final assay medium containing parasites. For the infected blood preparation, 5 ml of whole blood was centrifuged at 800g for 10 min, and the plasma and buffy coat were removed. […] Control assays on a 3D7 laboratory isolate were performed with medium supplemented with human serum (20%). The iRBC (180 μl per well) were distributed in the predosed drug plate. […] Control wells containing drug-free iRBCs were cultured with complete medium. […] The number of schizonts per 200 asexual-stage parasites was determined for each drug concentration and then normalized by comparing with the schizont number in the drug-free control wells [considered as 100% ([64])]. […]

[2] = system: P. falciparum stage IV/V gametocytes; experiment: LDH-based gametocyte viability assay; type: cell-based, Plasmodium falciparum; settings: stage IV to V gametocytes
Experimental: The pLDH assay was performed on late (>95% stage IV/V) gametocytes. Compound dilutions were placed in triplicate in 96-well plates in a final volume of 100 μl per well. DHA and MMV048 were used as positive drug controls. The gametocyte cultures (100 μl per well) were added to the 96-well plates to achieve a final gametocytemia and hematocrit of 2 and 1%, respectively, in a total incubation volume of 200 μl. Plates were incubated at 37°C for 72 hours, followed by the replacement of spent medium with drug-free culture medium (75% medium change) ([54], [55]). Plates were then incubated for a further 72 hours before assessing viability by measuring pLDH activity. Gametocyte viability was determined spectrophotometrically by measuring the activity of pLDH, according to a modified version of a published protocol ([56]). Briefly, 100 μl of Malstat reagent [0.21% (v/v) Triton X-100, 222 mM L-(+)-lactic acid, 54.5 mM tris, 0.166 mM APAD (Sigma-Aldrich, A5251), adjusted to pH 9 with 1 M NaOH] was transferred into a clean 96-well plate. A fixed volume of 20 μl of parasite suspension per well was added to the Malstat plate, followed by the addition of 25 μl of PES/NBT (0.239 mM phenazine ethosulfate and 1.96 mM nitro blue tetrazolium chloride). Absorbance was measured with a Multiskan Ascent 354 multiplate scanner (Thermo LabSystems, Finland) at 620 nm.

P. falciparum Dd2 = P. falciparum Dd2 LDH growth inhibition assay (asexual blood stage); type: cell-based, Plasmodium falciparum; settings: multidrug-resistant Dd2; geometric mean ×/÷ geometric SD
Experimental: (§1) P. falciparum isolates (3D7/Dd2) were obtained from BEI Resources and were cultured using standard procedures as described elsewhere ([47]). Briefly, P. falciparum was grown in RPMI 1640 medium (10.3 g/liter) supplemented with L-glutamine (2 mM), hypoxanthine (150 μM), Hepes (25 mM), D-glucose (12 mM), sodium bicarbonate (25.7 mM), AlbuMAX II (0.5% or 5 g/liter) (pH 7.4), and 2% RBC (type O+, freshly prepared). Cultures were replenished with fresh medium and RBCs every other day. For RBC preparation, whole blood was centrifuged at 415g at room temperature for 12 min. After that, the plasma and buffy coat were removed, and packed RBCs were washed three times with 3 vol of RPMI 1640. Last, RBCs were resuspended in 1:1 vol of complete RPMI 1640 medium (containing 0.5% AlbuMAX II).
(§2) The P. falciparum 3D7 and Dd2 LDH growth inhibition assay was carried out as described elsewhere ([48]) with minor modification of the parasitological conditions (10 to 15% parasitemia with ≥80% rings). Data were normalized to percent growth inhibition with respect to […] (for 3D7, a mixture of 100 nM chloroquine and 100 nM atovaquone as 100% inhibition; for Dd2, a mixture of 200 nM DHA and 200 nM atovaquone as 100% inhibition) controls.

[3] = system: P. falciparum clinical isolates from Porto Velho, Brazil; experiment: Ex vivo schizont maturation assay, Brazilian clinical isolates; type: cell-based, Plasmodium falciparum; settings: eight Brazilian isolates; read-out: Median EC50, clinical isolates
Experimental: Only monoinfected patients with P. falciparum with parasitemia between 2000 and 80,000 parasites/μl and with at least 70% of ring-stage parasites were recruited. Patients who had used an antimalarial in the previous month and/or presented with symptoms of severe malaria were excluded from the study. The study cohort comprised 24 patients living in this highly endemic area. A peripheral venous blood sample (5 ml) was collected from each individual by venipuncture in heparin-containing tubes and immediately used in the ex vivo drug susceptibility assay using preprepared plates containing diluted antimalarial compounds. […] Last, 20 μl of each dilution was transferred into the ex vivo assay plate and diluted 10-fold into the final assay medium containing parasites. For the infected blood preparation, 5 ml of whole blood was centrifuged at 800g for 10 min, and the plasma and buffy coat were removed. […] Control assays on a 3D7 laboratory isolate were performed with medium supplemented with human serum (20%). The iRBC (180 μl per well) were distributed in the predosed drug plate. […] Control wells containing drug-free iRBCs were cultured with complete medium. The parasite-drug incubation was terminated when 40% of the ring stages reached the schizont stage (at least three distinct nuclei per parasite) in the drug-free control wells. Thick blood films were then made from each well, dried, stained with 5% Giemsa solution for 30 min, and examined microscopically. The number of schizonts per 200 asexual-stage parasites was determined for each drug concentration and then normalized by comparing with the schizont number in the drug-free control wells [considered as 100% ([64])]. The half-maximal drug inhibitory response (EC50) was estimated by curve fitting using software from the OriginLab Corporation, Northampton, MA, USA and comparing with parasite growth in the drug-free controls.

[4] = system: P. falciparum stage V gametocytes (female gamete formation); experiment: Female gamete formation inhibition assay; type: cell-based, Plasmodium falciparum; settings: 2 μM, 48 hours
Experimental: Mature gametocytes (>95% stage V) were treated with compounds (2 μM) for 48 hours before stimulating female gamete formation. To evaluate compound dose response, gametocytes were treated similarly at set concentrations representing a fourfold serial dilution. Female gamete activation was induced by both a temperature drop and the addition of 100 μM XA. Monoclonal anti-Pfs25 antibody (BEI Resources, catalog number MRA-28; 1:1000 dilution) conjugated to fluorescein isothiocyanate was used to detect female gametes. Image acquisition was performed using a Zeiss Axio Lab.A1 epifluorescence microscope with a 100/1.4 numerical aperture oil immersion objective and a Zeiss Axiocam 202 mono digital camera. Using a 100× objective, 30 images were taken per sample and analyzed manually. The number, size, roundness, and intensity of fluorescence of activated female gametocytes were evaluated. Compound IC50 values were determined with nonlinear curve fitting (GraphPad Prism 6), normalized to maximum and minimum inhibition.

[5] = system: P. falciparum stage V gametocytes (male gamete formation); experiment: Exflagellation (male gamete formation) inhibition assay; type: cell-based, Plasmodium falciparum; settings: 2 μM, 48 hours
Experimental: The exflagellation inhibition assay was performed by capturing movement of exflagellation centers over time by video microscopy [adapted from a reported protocol ([52])]. For this carry-over format, mature stage V gametocytes were treated with 2 μM of each compound for 48 hours before induction of exflagellation in the presence of compound. To evaluate compound dose response, gametocytes were treated similarly at a set of concentrations representing a fourfold serial dilution. Mature gametocyte cultures (>95% stage V; 500 μl) were centrifuged at 3500 rpm for 30 s, and the pellet was resuspended in 30 μl of ookinete medium [RPMI 1640 medium containing L-glutamine (Sigma-Aldrich, R6504), gentamycin (0.024 mg/ml; HyClone, SV30080.01), 202 μM hypoxanthine (Sigma-Aldrich, H9636), 25 mM Hepes (Sigma-Aldrich, H4034), 0.2% glucose (Sigma-Aldrich, G6152), and 0.5% (w/v) AlbuMAX II (Invitrogen, Paisley, UK), supplemented with 100 μM XA and 20% human serum]. The activated culture (10 μl) was introduced into a Neubauer chamber and placed on the microscope platform to settle homogenously. Time was noted as time zero (T0), and the chamber was incubated at room temperature. Movement was recorded by video microscopy using a Carl Zeiss NT 6V/10W Stab microscope, fitted with a MicroCapture camera at 10× magnification, and then quantified by a semiautomated method, a modification of the method described previously ([53]). A series of 15 videos of 8 to 10 s each were captured at random locations between 15 and 22.5 min after incubation. Each video was analyzed using Icy bioimage analysis software to quantify the number of exflagellating centers. Compound IC50 values were determined with nonlinear curve fitting (GraphPad Prism 6), normalized to maximum and minimum inhibition.

recombinant human PDE9 = system: recombinant human PDE9; set-up: method as in PMID 25555060, PMID 21766240; settings: cited from earlier work
P. falciparum ABS = settings: read-out: EC50 P. falciparum ABS growth inhibition; cited from earlier work
PDEβ = target: T1, PDEβ (Plasmodium falciparum, UniProt Q8I6Z7); experiment: cAMP hydrolysis SPA in schizont membrane lysates; type: biochemical; settings: read-out: IC50 against PDEβ
T1 construct: endogenous in cells; host or cells: P. falciparum 3D7 schizonts, NP-40 membrane lysate
T1 sequence (Q8I6Z7 whole entry): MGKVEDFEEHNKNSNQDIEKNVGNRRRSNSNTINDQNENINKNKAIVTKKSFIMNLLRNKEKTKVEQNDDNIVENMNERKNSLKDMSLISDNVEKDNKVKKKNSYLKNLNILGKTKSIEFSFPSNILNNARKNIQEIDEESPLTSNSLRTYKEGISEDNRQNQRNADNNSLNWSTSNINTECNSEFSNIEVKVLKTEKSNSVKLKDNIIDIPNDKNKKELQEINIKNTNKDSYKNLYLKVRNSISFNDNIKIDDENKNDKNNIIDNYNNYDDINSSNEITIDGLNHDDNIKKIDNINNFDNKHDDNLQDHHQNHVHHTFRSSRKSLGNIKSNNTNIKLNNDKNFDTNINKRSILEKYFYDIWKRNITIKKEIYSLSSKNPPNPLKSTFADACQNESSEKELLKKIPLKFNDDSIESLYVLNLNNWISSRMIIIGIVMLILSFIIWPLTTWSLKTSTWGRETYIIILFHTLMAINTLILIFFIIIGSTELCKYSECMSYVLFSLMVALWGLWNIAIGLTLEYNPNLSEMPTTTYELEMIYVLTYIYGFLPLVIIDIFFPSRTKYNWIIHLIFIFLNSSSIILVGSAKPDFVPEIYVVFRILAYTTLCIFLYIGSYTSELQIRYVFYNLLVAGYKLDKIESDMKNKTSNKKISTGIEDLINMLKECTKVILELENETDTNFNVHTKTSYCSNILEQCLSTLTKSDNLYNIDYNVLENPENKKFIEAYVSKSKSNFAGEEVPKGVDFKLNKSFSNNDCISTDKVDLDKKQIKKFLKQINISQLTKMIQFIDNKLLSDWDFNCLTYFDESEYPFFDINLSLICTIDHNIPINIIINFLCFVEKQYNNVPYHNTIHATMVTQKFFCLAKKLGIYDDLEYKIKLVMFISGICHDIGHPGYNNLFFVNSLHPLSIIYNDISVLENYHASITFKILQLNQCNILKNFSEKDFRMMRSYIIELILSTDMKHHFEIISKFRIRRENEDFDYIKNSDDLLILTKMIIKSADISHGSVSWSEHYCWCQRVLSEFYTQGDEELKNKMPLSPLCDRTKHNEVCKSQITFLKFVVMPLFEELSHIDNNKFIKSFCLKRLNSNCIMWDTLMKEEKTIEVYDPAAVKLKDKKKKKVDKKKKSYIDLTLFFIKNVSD
Source text: We identified three PDE inhibitor chemical series generated by Pfizer, with structures in the public domain, which have activity against malaria parasites (see the “Chemistry strategy summary” section). These series were originally designed to inhibit human PDEs and were chosen as chemistry start points to optimize activity against malaria parasites. More than 400 new analogs were generated (full details of their properties will be reported in a separate paper, in preparation) through iterative rounds of synthesis and testing. The chemistry start points for each of the series were SAL-0010042 (5-benzyl), SAL-0010043 (5-aryl), and SAL-0010034 (2-alkyl) (see Materials and Methods and fig. S1A). S2. Analytical data for these compounds are provided in data S1. All newly synthesized compounds were tested for inhibition of native cAMP-PDE activity in mature schizont crude membrane preparations and inhibition of P. falciparum ABS growth. S3A. […] The unbound EC50 values for the compounds in the parasite growth inhibition assay were consistently calculated to be sevenfold higher than the IC50 values in the biochemical assay. Given that PDEβ is dual specific (i.e., can hydrolyze both cAMP and cGMP), we also determined IC50 values for cGMP hydrolysis. […] The IC50 values measured for cGMP hydrolysis in blood-stage schizonts were generally similar to those for cAMP hydrolysis (Table 1). […]
The cyclic nucleotide hydrolytic activity of membrane-associated parasite PDE enzymes was measured by a scintillation proximity assay (SPA) ([18]) using lysates of mature P. falciparum schizonts or stage IV/V gametocytes. […] The IC50 values for the compounds were determined using threefold serial dilutions in duplicate. […] The reactions were terminated by addition of 25 μl of PDE SPA beads (PerkinElmer, RPNQ0150), and after 20 min of incubation at room temperature, scintillation was measured using a Wallac 1450 Microbeta Counter (PerkinElmer) for 30 s. […]

PDE6 = system: PDE6; set-up: method as in PMID 29743944; settings: cited from earlier work
malaria parasites = system: malaria parasites; set-up: method as in PMID 25951195, PMID 33262483; settings: cited from earlier work
P. falciparum 3D7 [6] = experiment: P. falciparum 3D7 LDH growth inhibition assay (asexual blood stage); type: cell-based, Plasmodium falciparum; settings: Plasmodium falciparum, 3D7, read-out: EC50 against ABS parasites
Experimental: as §1, §2

SMILES: CCc1c2nc(-c3cc(C(=O)NC(C)C)cnc3OCC(C)C)[nH]c(=O)c2nn1CCOC [SAL-0010255]
- EC50 (P. falciparum 3D7 [1]): 89 nM
- % inhibition gametocyte viability at 15 μM [2]: 40.4 ± 3.1%
- EC50 (P. falciparum Dd2): 126 nM
- EC50 [3]: 157 nM
- % inhibition of female gamete formation at 2 μM [4]: 66.7 ± 1.8%
- % inhibition of exflagellation at 2 μM [5]: 48.8 ± 25.3%

SMILES: CC(C)c1n[nH]c2c(=O)[nH]c(Cc3ccccc3)nc12 [BIPPO, 5-benzyl-3-isopropyl-1H-pyrazolo[4,3-d]pyrimidin-7(6H)-one]
- Potency against recombinant human PDE9 (recombinant human PDE9): 30 nM
- EC50 (P. falciparum ABS): 400 nM
- IC50 (PDEβ): 9 nM

SMILES: CCCc1nn(C)c2c(=O)[nH]c(-c3cc(S(=O)(=O)N4CCN(C)CC4)ccc3OCC)nc12 [sildenafil]
- Selectivity (PDE5 over PDE6) (PDE6): < 10 fold
- IC50 against malaria parasites (malaria parasites): mid-to-high micromolar range
- EC50 (P. falciparum 3D7 [6]): > 25000 nM
- IC50 (PDEβ): > 10000 nM
